Consider 2 molecules from ChEMBL document CHEMBL1138599, “Conjugation with alpha-linolenic acid improves cancer cell uptake and cytotoxicity of doxorubicin” (Bioorg Med Chem Lett, 2009).

The test system of series [1] is MCF7. The experiment in a line: Cytotoxicity against human MCF7 cells by MTT assay. The series is classed as functional, cell-based.
Series [2] concerns MDA-MB-231. Description: Cytotoxicity against human MDA-MB-231 cells MTT assay. It is filed as functional, cell-based.
The next series has as its system HepG2. The experiment in a line: Cytotoxicity against human HepG2 cells MTT assay. The series is classed as functional, cell-based.
Series [3] concerns MCF7. Description: Drug uptake in human MCF7 cells by flow cytometry. It is filed as ADME, cell-based.
The subject of series [4] is MDA-MB-231. The experiment in a line: Drug uptake in human MDA-MB-231 cells by flow cytometry. The series is classed as ADME, cell-based.

The structures appear in SMILES notation.

For the molecule `CC/C=C\C/C=C\C/C=C\CCCCCCCC(=O)N[C@H]1C[C@H](O[C@H]2C[C@](O)(C(=O)CO)Cc3c(O)c4c(c(O)c32)C(=O)c2c(OC)cccc2C4=O)O[C@@H](C)[C@H]1O`, the IC50 in the series with MCF7 [1] was 4.7 µM; in the series on MDA-MB-231 [2] it was 3.1 µM; in the series on HepG2, 6.8 µM. Moreover, the Drug uptake entry in the series with MCF7 [3] and with MDA-MB-231 [4] was “Dose-dependent effect” each time.

With `COc1cccc2c1C(=O)c1c(O)c3c(c(O)c1C2=O)C[C@@](O)(C(=O)CO)C[C@@H]3O[C@H]1C[C@H](N)[C@H](O)[C@H](C)O1` [DOXORUBICIN], the figures for the IC50 in the series with MDA-MB-231 [2] and in the series with HepG2 were 10.2 µM and 14.3 µM, respectively. For the same molecule, the Drug uptake entry in the series on MCF7 [3] and in the series with MDA-MB-231 [4] was “Dose-dependent effect” throughout.
